Test results reported in US12090146B2, “Substituted-pyridinyl compounds and uses thereof” (Bionomics Limited, priority 2018, dated 2024).

Columns and labels:
hKv3.1 = target: T1, hKv3.1 (Homo sapiens, UniProt P48547); experiment: Automated patch clamp (Patchliner) whole-cell electrophysiology, Kv3.1; type: cell-based; conditions: 10 μM compound, CHO-K1 cells stably expressing hKv3.1; for Kv3.1 Activity at 10 μM Potentiation (%): % potentiation of peak current at −10 mV voltage step vs vehicle; for Kv3.1 Activity at 10 μM Voltage Shift (mV): voltage shift of the IV curve at V1/2
T1 construct: expressed in transfected cells
T1 sequence (P48547 1-511): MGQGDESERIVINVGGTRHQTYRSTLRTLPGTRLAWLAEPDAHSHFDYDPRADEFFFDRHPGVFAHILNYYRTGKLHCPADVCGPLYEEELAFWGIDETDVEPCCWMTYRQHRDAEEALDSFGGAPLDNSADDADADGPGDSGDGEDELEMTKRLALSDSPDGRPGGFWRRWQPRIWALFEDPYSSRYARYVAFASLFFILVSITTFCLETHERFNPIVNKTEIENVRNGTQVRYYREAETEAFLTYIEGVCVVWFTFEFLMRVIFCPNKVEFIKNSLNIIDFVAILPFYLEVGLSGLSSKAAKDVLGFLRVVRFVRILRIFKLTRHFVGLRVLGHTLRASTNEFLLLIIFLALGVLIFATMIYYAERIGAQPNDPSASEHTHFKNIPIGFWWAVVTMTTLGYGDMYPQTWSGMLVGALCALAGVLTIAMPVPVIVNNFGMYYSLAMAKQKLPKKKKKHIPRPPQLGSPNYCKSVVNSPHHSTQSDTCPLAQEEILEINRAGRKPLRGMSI
Procedure: (§1) hKv3.1, hKv3.2, hKv3.3, and hKv3.4 were stably expressed in CHO-K1 (Chinese hamster ovary) cells and kept under constant antibiotic selection. For in vitro assays, cells were maintained in appropriate growth medium at 37° C. and 5% CO2 in a humidified incubator.
(§2) hKv3.X expressing cells were plated in T-25 flasks for 3-4 days at 37° C. (no selection antibiotic) prior to use and grown to 80% confluence. Cells were washed twice with PBS (calcium and magnesium free) and detached with a 5-minute treatment at 37° C. with 2-3 mls of Accutase®. Cells were collected, and flask was washed in CHO-SFM II media (Life Technologies Gibco), centrifuged for 2 minutes at ˜110×g and resuspended to obtain a single cell suspension of ˜2-3×10^6 cells/ml.
(§3) The intracellular solution contained the following (in mM): KCl 50, NaCl 10, KF 60, EGTA 20, HEPES 10, adjusted to pH 7.2 with KOH and an osmolarity of 285 mOsmol. Seal enhancer was purchased from Nanion (80 mM NaCl, 3 mM KCl, 10 mM MgCl2, 35 mM CaCl2), 10 mM HEPES, pH7.4, 298 mOsmol. The external solution contained (in mM): NaCl 140, KCl 4, CaCl2) 2, MgCl2 1, HEPES 10, Glucose 5, adjusted to pH7.4 and an osmolarity of 298 mOsmol.
(§4) All compounds were initially tested at 10 uM at a final DMSO concentration of 0.33%. Compounds were dissolved in dimethylsulfoxide (DMSO) at a stock concentration of 30 mM. The compound was further diluted 1:10 to give a stock concentration of 3 mM in DMSO. The final assay solution was diluted 1:300 in External solution to give a final concentration of 10 uM. For the DMSO Control Buffer 30 uL of DMSO was added to 10 mL buffer.
(§5) All electrophysiological recordings were performed at ambient temperature (21-23° C.) using automated patch clamp (Patchliner, Nanion Technologies GmbH) in the whole-cell configuration.
(§6) Cell membrane potentials were held at −80 mV, and currents were evoked by voltage steps (1000 ms duration) from −60 to +60 mV in 10 mV increments. This was performed first with vehicle (0.33% DMSO) and then with 10 uM compound, after a 3-minute incubation period. Data was taken from 4 cells per assay.
(§7) The recordings were analysed and selected using peak current amplitude (>100 pA at the −10 mV voltage step) in the absence of compound to eliminate unsuitable cells from analysis. Peak current amplitude was measured and recorded for each voltage step and data was normalised to the maximum current at +60 mV. The normalised Kv3.x currents following addition of the compound were then compared with the currents recorded prior to compound addition (vehicle control). Positive modulation was determined as % potentiation at the voltage step of −10 mV=[current (cmpd)/current (veh)]*100−100. % potentiation ≥50% was considered acceptable. In addition, voltage shift of the IV curve at V1/2 was measured. V1/2 of ≥−5 mV was also considered acceptable. IV curves were plotted in GraphPad Prism (software version 6.0) and fitted with a Boltzmann equation, where V1/2 is the voltage at half-maximal activation.

hKv3.2 = target: T2, hKv3.2 (Homo sapiens, UniProt Q96PR1); experiment: Automated patch clamp (Patchliner) whole-cell electrophysiology, Kv3.2; type: cell-based; conditions: 10 μM compound, CHO-K1 cells stably expressing hKv3.2; for activation at 10 µM: % potentiation of peak current at −10 mV voltage step vs vehicle; for Kv3.2 Activity at 10 μM Voltage Shift (mV): voltage shift of the IV curve at V1/2
T2 construct: expressed in transfected cells
T2 sequence (Q96PR1 1-638): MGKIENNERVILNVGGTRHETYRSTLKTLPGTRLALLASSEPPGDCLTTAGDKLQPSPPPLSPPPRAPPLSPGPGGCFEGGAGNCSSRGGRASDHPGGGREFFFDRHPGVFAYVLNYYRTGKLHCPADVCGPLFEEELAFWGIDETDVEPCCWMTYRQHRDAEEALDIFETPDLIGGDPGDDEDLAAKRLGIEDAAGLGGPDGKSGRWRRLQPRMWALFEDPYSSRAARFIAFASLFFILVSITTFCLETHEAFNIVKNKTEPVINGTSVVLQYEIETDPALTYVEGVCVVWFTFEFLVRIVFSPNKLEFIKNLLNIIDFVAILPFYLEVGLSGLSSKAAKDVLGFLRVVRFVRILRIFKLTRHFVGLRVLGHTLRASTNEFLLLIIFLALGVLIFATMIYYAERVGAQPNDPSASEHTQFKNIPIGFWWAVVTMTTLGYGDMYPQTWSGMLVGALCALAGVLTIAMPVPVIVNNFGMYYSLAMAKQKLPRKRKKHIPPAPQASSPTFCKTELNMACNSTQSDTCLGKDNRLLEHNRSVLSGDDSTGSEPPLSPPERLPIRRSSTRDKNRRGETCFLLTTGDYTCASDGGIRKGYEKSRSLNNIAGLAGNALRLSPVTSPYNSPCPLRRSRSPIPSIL
Procedure: as §1, §2, §3, §4, §5, §6, §7

| SMILES | Kv3.1 Activity at 10 μM Potentiation (%) (hKv3.1) | Kv3.1 Activity at 10 μM Voltage Shift (mV) (hKv3.1) | activation at 10 µM (hKv3.2) | Kv3.2 Activity at 10 μM Voltage Shift (mV) (hKv3.2) |
| --- | --- | --- | --- | --- |
| COc1cc(Oc2cc(N3C(=O)NC4(CCC4)C3=O)ccn2)ccc1C [Example 34, 7-[2-(3-methoxy-4-methyl-phenoxy)-4-pyridyl]-5,7-diazaspiro[3.4]octane-6,8-dione] | 27% | −4.19 mV | 25% | −1.25 mV |
| O=C1NC2(CCCCC2)C(=O)N1c1ccnc(Oc2ccc3c(c2)OCO3)c1 [Example 35, 3-[2-(1,3-benzodioxol-5-yloxy)-4-pyridyl]-1,3-diazaspiro[4.5]decane-2,4-dione] | 41% | −3.4 mV | 55% | −3.73 mV |
| O=C1NC2(CCCC2)C(=O)N1c1ccnc(Oc2ccc3c(c2)OC(F)(F)O3)c1 [Example 36, 3-[2-[(2,2-difluoro-1,3-benzodioxol-5-yl)oxy]-4-pyridyl]-1,3-diazaspiro[4.4]nonane-2,4-dione] | 85% | −6.21 mV | 43% | −4.8 mV |
| O=C1NC2(CCC2)C(=O)N1c1ccnc(Oc2ccc3c(c2)OC(F)(F)O3)c1 [Example 37, 7-[2-[(2,2-difluoro-1,3-benzodioxol-5-yl)oxy]-4-pyridyl]-5,7-diazaspiro[3.4]octane-6,8-dione] | 90% | −5.21 mV | 63% | −3.6 mV |
| COc1cc(Oc2cncc(N3C(=O)NC(C)(C)C3=O)c2)ccc1C [Example 39, 3-[5-(3-methoxy-4-methyl-phenoxy)-3-pyridyl]-5,5-dimethyl-imidazolidine-2,4-dione] | 25% | −2.77 mV | 31% | −3.78 mV |
| CC[C@H]1NC(=O)N(c2cc(Oc3ccc(C)c(OC)c3)ccn2)C1=O [Example 41, (5R)-5-ethyl-3-[4-(3-methoxy-4-methyl-phenoxy)-2-pyridyl]imidazolidine-2,4-dione] | 67% | −4.46 mV | 53% | −3.77 mV |
| COc1cc(Oc2ccnc(N3C(=O)NC(C)(C)C3=O)c2)ccc1C [Example 44, 3-[4-(3-methoxy-4-methyl-phenoxy)-2-pyridyl]-5,5-dimethyl-imidazolidine-2,4-dione] | 45% | −3.03 mV | 28% | −2.81 mV |

Other lines, results leading:

| Kv3.1 Activity at 10 μM Potentiation (%) (hKv3.1) | Kv3.1 Activity at 10 μM Voltage Shift (mV) (hKv3.1) | activation at 10 µM (hKv3.2) | Kv3.2 Activity at 10 μM Voltage Shift (mV) (hKv3.2) | SMILES |
| --- | --- | --- | --- | --- |
| 19% | −2.36 mV | 61% | −6.69 mV | CC[C@@]1(C)NC(=O)N(c2cc(Oc3ccc(C)c(OC)c3)ccn2)C1=O [Example 45, (5R)-5-ethyl-3-[4-(3-methoxy-4-methyl-phenoxy)-2-pyridyl]-5-methyl-imidazolidine-2,4-dione] |
| 62% | −4.26 mV | 61% | −5.3 mV | CC[C@H]1NC(=O)N(c2cccc(Oc3ccc(C)c(OC)c3)n2)C1=O [Example 48, (5R)-5-ethyl-3-[6-(3-methoxy-4-methyl-phenoxy)-2-pyridyl]imidazolidine-2,4-dione] |
| 35% | −5.32 mV | 33% | −2.6 mV | CC[C@@]1(C)NC(=O)N(c2cccc(Oc3ccc(C)c(OC)c3)n2)C1=O [Example 58, (5R)-5-ethyl-3-[6-(3-methoxy-4-methyl-phenoxy)-2-pyridyl]-5-methyl-imidazolidine-2,4-dione] |
| 44% | −2.08 mV | 34% | −2.42 mV | CC[C@@]1(C)NC(=O)N(c2cccc(Oc3cc(OC)cc(OC)c3)n2)C1=O [Example 70, (5R)-3-[6-(3,5-dimethoxyphenoxy)-2-pyridyl]-5-ethyl-5-methyl-imidazolidine-2,4-dione] |
| 15% | −4.01 mV | 5% | 0 mV | COc1cc(Oc2cccc(N3C(=O)NC4(CCCCC4)C3=O)n2)ccc1C [Example 75, 3-[6-(3-methoxy-4-methyl-phenoxy)-2-pyridyl]-1,3-diazaspiro[4.5]decane-2,4-dione] |
| 30% | −2.27 mV | 14% | −1.69 mV | CC1(C)NC(=O)N(c2ccc(F)c(Oc3ccc4c(c3)OC(F)(F)O4)n2)C1=O [Example 84, 3-[6-[(2,2-difluoro-1,3-benzodioxol-5-yl)oxy]-5-fluoro-2-pyridyl]-5,5-dimethyl-imidazolidine-2,4-dione] |
| 217% | −10.39 mV | 121% | −7.43 mV | COc1cc(Oc2nccc(N3C(=O)NC4(CCCC4)C3=O)c2F)ccc1C [Example 90, 3-[3-fluoro-2-(3-methoxy-4-methyl-phenoxy)-4-pyridyl]-1,3-diazaspiro[4.4]nonane-2,4-dione] |
| 150% | −10.63 mV | 137% | −6.75 mV | COc1cc(Oc2nccc(N3C(=O)NC4(CCCCC4)C3=O)c2F)ccc1C [Example 91, 3-[3-fluoro-2-(3-methoxy-4-methyl-phenoxy)-4-pyridyl]-1,3-diazaspiro[4.5]decane-2,4-dione] |
